Patent publication US12171230B2, “Herbicidal compositions” (Bayer Aktiengesellschaft, priority 2018, dated 2024)

Assays:
Format in all cases: in vivo
Alopecurus myosuroides = assay: Post-emergence herbicidal action against Alopecurus myosuroides
Description: (§1) The following abbreviations are used in the description and the tables that follow: • g of a.i./ha=grams of active substance (active ingredient) (=100% active compound) per hectare; • The sum total of the effects of the individual applications is reported under E^A; • expected values according to Colby are each reported under E^C.
(§2) The rating period is reported in days after application (DAT).

Poa annua = assay: Post-emergence herbicidal action against Poa annua; conditions: for Herbicidal action in [%] 14 DAT against Poa annua L. / Herbicidal action in [%] 28 DAT against Poa annua L.: post-emergence
Procedure: (§3) When the observed efficacies exceed the formal sum total of the values of the tests with individual applications, they also exceed the expected value according to Colby, which is calculated using the formula below and is likewise regarded as an indication of synergism (cf. S. R. Colby; in Weeds 15 (1967) p. 20 to 22): E^C=A+B−([…])
(§4) Here: • A=efficacy of the active compound (A) in % at an application rate of a g a.i./ha; • B=efficacy of the active compound (B) in % at an application rate of b g a.i./ha; • E^C=expected value of the effect of the combination (A)+(B) in % at the combined application rate a+b g a.i./ha.
(§5) Seeds or rhizome pieces of mono- and dicotyledonous weeds are placed in sandy loam in pots, covered with soil and grown in a greenhouse under good growth conditions (temperature, air humidity, water supply). Three weeks after sowing, the test plants were treated at the three-leaf stage with the compositions according to the invention. The compositions according to the invention formulated as spray powders or as emulsion concentrates were sprayed onto the green plant parts in various dosages with an application rate of 300 to 800 l/ha of water (equivalent). After the test plants have been left to stand in the greenhouse under optimal growth conditions for about 3 to 4 weeks, the action of the preparations is scored visually in comparison to untreated controls. The compositions according to the invention also have good post-emergence herbicidal activity against a broad spectrum of economically important gramineous and broadleaf weeds.

Viola tricolor = assay: Post-emergence herbicidal action against Viola tricolor
Description: as §1, §2

Phalaris minor = assay: Post-emergence herbicidal action against Phalaris minor
Description: as §1, §2

Matricaria inodora = assay: Post-emergence herbicidal action against Matricaria inodora; conditions: for Herbicidal action in [%] 14 DAT against Matricaria inodora: post-emergence
Lolium rigidum = assay: Post-emergence herbicidal action against Lolium rigidum
Description: as §1, §2

Veronica hederifolia = assay: Post-emergence herbicidal action against Veronica hederifolia
Description: as §1, §2

Bromus sterilis = assay: Post-emergence herbicidal action against Bromus sterilis
Description: as §1, §2

[1] = test system: Lolium rigidum (resistant biotype); assay: Post-emergence herbicidal action against Lolium rigidum (resistant biotype)
Description: as §1, §2

Galium aparine = assay: Post-emergence herbicidal action against Galium aparine
Procedure: as §3, §4, §5

SMILES: COc1cc(OC)nc(NC(=O)NS(=O)(=O)c2cc(NC=O)ccc2C(=O)N(C)C)n1 [(B2.31) Foramsulfuron]
- Herbicidal action 14 DAT against Alopecurus myosuroides (Alopecurus myosuroides; 1 g of a.i./ha): 80%
- Herbicidal action 28 DAT against Alopecurus myosuroides (Alopecurus myosuroides; 1 g of a.i./ha): 40%
- Herbicidal action 28 DAT against Alopecurus myosuroides (Alopecurus myosuroides; 3 g of a.i./ha): 80%
- Herbicidal action 28 DAT against Alopecurus myosuroides (Alopecurus myosuroides; 9 g of a.i./ha): 85%
- Herbicidal action 28 DAT against Poa annua L. (Poa annua; 1 g of a.i./ha): 40%
- Herbicidal action 28 DAT against Viola tricolor (Viola tricolor; 1 g of a.i./ha): 65%
- Herbicidal action 28 DAT against Viola tricolor (Viola tricolor; 3 g of a.i./ha): 80%
- Herbicidal action 14 DAT against Phalaris minor (Phalaris minor; 3 g of a.i./ha): 85%
- Herbicidal action 28 DAT against Phalaris minor (Phalaris minor; 3 g of a.i./ha): 40%
- Herbicidal action 14 DAT against Phalaris minor (Phalaris minor; 9 g of a.i./ha): 80%
- Herbicidal action 28 DAT against Phalaris minor (Phalaris minor; 9 g of a.i./ha): 20%
- Herbicidal action 14 DAT against Matricaria inodora (Matricaria inodora; 1 g of a.i./ha): 70%
- Herbicidal action 28 DAT against Matricaria inodora (Matricaria inodora; 1 g of a.i./ha): 30%
- Herbicidal action 28 DAT against Lolium rigidum (Lolium rigidum; 3 g of a.i./ha): 35%
- Herbicidal action 28 DAT against Lolium rigidum (Lolium rigidum; 9 g of a.i./ha): 65%
- Herbicidal action 14 DAT against Veronica hederifolia (Veronica hederifolia; 1 g of a.i./ha): 80%
- Herbicidal action 14 DAT against Bromus sterilis (Bromus sterilis; 1 g of a.i./ha): 65%
- Herbicidal action 14 DAT against Bromus sterilis (Bromus sterilis; 3 g of a.i./ha): 85%
- Herbicidal action 28 DAT against Bromus sterilis (Bromus sterilis; 3 g of a.i./ha): 25%
- Herbicidal action 14 DAT against Bromus sterilis (Bromus sterilis; 9 g of a.i./ha): 85%
- Herbicidal action 28 DAT against Bromus sterilis (Bromus sterilis; 9 g of a.i./ha): 60%
- Herbicidal action 14 DAT against Lolium rigidum (resistant biotype) ([1]; 3 g of a.i./ha): 15%
- Herbicidal action 28 DAT against Lolium rigidum (resistant biotype) ([1]; 3 g of a.i./ha): 10%
- Herbicidal action 14 DAT against Lolium rigidum (resistant biotype) ([1]; 9 g of a.i./ha): 15%
- Herbicidal action 28 DAT against Lolium rigidum (resistant biotype) ([1]; 9 g of a.i./ha): 20%
- Herbicidal action 28 DAT against Galium aparine (Galium aparine; 1 g of a.i./ha): 0%
- Herbicidal action 28 DAT against Galium aparine (Galium aparine; 9 g of a.i./ha): 65%

SMILES: COc1c(Cl)ccc(-c2cc(N)c(Cl)c(C(=O)O)n2)c1F [(B5.31) Halauxifen]
- Herbicidal action in [%] 14 DAT against Alopecurus myosuroides (Alopecurus myosuroides; 1 g of a.i./ha): 0%
- Herbicidal action in [%] 14 DAT against Alopecurus myosuroides (Alopecurus myosuroides; 3 g of a.i./ha): 0%
- Herbicidal action in [%] 14 DAT against Alopecurus myosuroides (Alopecurus myosuroides; 9 g of a.i./ha): 5%
- Herbicidal action in [%] 28 DAT against Alopecurus myosuroides (Alopecurus myosuroides; 1 g of a.i./ha): 0%
- Herbicidal action in [%] 28 DAT against Alopecurus myosuroides (Alopecurus myosuroides; 3 g of a.i./ha): 0%
- Herbicidal action in [%] 28 DAT against Alopecurus myosuroides (Alopecurus myosuroides; 9 g of a.i./ha): 0%
- Herbicidal action in [%] 14 DAT against Poa annua L. (Poa annua; 1 g of a.i./ha): 0%
- Herbicidal action in [%] 14 DAT against Poa annua L. (Poa annua; 3 g of a.i./ha): 0%
- Herbicidal action in [%] 14 DAT against Poa annua L. (Poa annua; 9 g of a.i./ha): 5%
- Herbicidal action in [%] 28 DAT against Poa annua L. (Poa annua; 1 g of a.i./ha): 0%
- Herbicidal action in [%] 28 DAT against Poa annua L. (Poa annua; 3 g of a.i./ha): 0%
- Herbicidal action in [%] 28 DAT against Poa annua L. (Poa annua; 9 g of a.i./ha): 0%
- Herbicidal action in [%] 14 DAT against Phalaris minor (Phalaris minor; 1 g of a.i./ha): 0%
- Herbicidal action in [%] 14 DAT against Phalaris minor (Phalaris minor; 3 g of a.i./ha): 0%
- Herbicidal action in [%] 14 DAT against Phalaris minor (Phalaris minor; 9 g of a.i./ha): 5%
- Herbicidal action in [%] 28 DAT against Phalaris minor (Phalaris minor; 1 g of a.i./ha): 0%
- Herbicidal action in [%] 28 DAT against Phalaris minor (Phalaris minor; 3 g of a.i./ha): 0%
- Herbicidal action in [%] 28 DAT against Phalaris minor (Phalaris minor; 9 g of a.i./ha): 5%
- Herbicidal action in [%] 14 DAT against Matricaria inodora (Matricaria inodora; 1 g of a.i./ha): 30%
- Herbicidal action in [%] 14 DAT against Matricaria inodora (Matricaria inodora; 3 g of a.i./ha): 40%
- Herbicidal action in [%] 14 DAT against Matricaria inodora (Matricaria inodora; 9 g of a.i./ha): 60%
- Herbicidal action in [%] 14 DAT against Lolium rigidum (Lolium rigidum; 1 g of a.i./ha): 0%
- Herbicidal action in [%] 14 DAT against Lolium rigidum (Lolium rigidum; 3 g of a.i./ha): 0%
- Herbicidal action in [%] 14 DAT against Lolium rigidum (Lolium rigidum; 9 g of a.i./ha): 5%
- Herbicidal action in [%] 28 DAT against Lolium rigidum (Lolium rigidum; 1 g of a.i./ha): 0%
- Herbicidal action in [%] 28 DAT against Lolium rigidum (Lolium rigidum; 3 g of a.i./ha): 0%
- Herbicidal action in [%] 28 DAT against Lolium rigidum (Lolium rigidum; 9 g of a.i./ha): 0%
- Herbicidal action in [%] 14 DAT against Veronica hederifolia (Veronica hederifolia; 3 g of a.i./ha): 60%
- Herbicidal action in [%] 14 DAT against Veronica hederifolia (Veronica hederifolia; 9 g of a.i./ha): 60%
- Herbicidal action in [%] 14 DAT against Bromus sterilis (Bromus sterilis; 1 g of a.i./ha): 0%
- Herbicidal action in [%] 14 DAT against Bromus sterilis (Bromus sterilis; 3 g of a.i./ha): 10%
- Herbicidal action in [%] 14 DAT against Bromus sterilis (Bromus sterilis; 9 g of a.i./ha): 30%
- Herbicidal action in [%] 28 DAT against Bromus sterilis (Bromus sterilis; 1 g of a.i./ha): 0%
- Herbicidal action in [%] 28 DAT against Bromus sterilis (Bromus sterilis; 3 g of a.i./ha): 0%
- Herbicidal action in [%] 28 DAT against Bromus sterilis (Bromus sterilis; 9 g of a.i./ha): 20%
- Herbicidal action in [%] 14 DAT against Lolium rigidum (resistant biotype) ([1]; 1 g of a.i./ha): 0%
- Herbicidal action in [%] 14 DAT against Lolium rigidum (resistant biotype) ([1]; 3 g of a.i./ha): 0%
- Herbicidal action in [%] 14 DAT against Lolium rigidum (resistant biotype) ([1]; 9 g of a.i./ha): 5%
- Herbicidal action in [%] 28 DAT against Lolium rigidum (resistant biotype) ([1]; 1 g of a.i./ha): 0%
- Herbicidal action in [%] 28 DAT against Lolium rigidum (resistant biotype) ([1]; 3 g of a.i./ha): 0%
- Herbicidal action in [%] 28 DAT against Lolium rigidum (resistant biotype) ([1]; 9 g of a.i./ha): 10%
